Read-outs that look alike come from different tables or passages of the source.
Target: c-fms (Homo sapiens, UniProt P07333)
Experiment: c-fms autophosphorylation, fluorescence polarization competition immunoassay
Format: biochemical
Method: Autophosphorylation, Fluorescence Polarization Competition Immunoassay
The assay buffer used was 100 mM 4-(2-hydroxyethyl)piperazine 1-ethanesulfonic acid (HEPES), pH 7.5, 1 mM 1,4-dithio-DL-threitol (DTT), 0.01% (v/v) Tween-20. Compounds were diluted in assay buffer containing 4% dimethylsulfoxide (DMSO) just prior to the assay. […] The kinase reaction was initiated by adding 2 μL of 5 mM ATP (Sigma) in assay buffer. The final concentrations in the assay were 10 nM c-fms, 1 mM ATP, 5 mM MgCl2, 2% DMSO. Control reactions were ran in each plate: in positive and negative control wells, assay buffer (made 4% in DMSO) was substituted for the compound; in addition, positive control wells received 1.2 μL of 50 mM ethylenediaminetetraaceticacid (EDTA).
The plates were incubated at room temperature for 45 min. At the end of the incubation, the reaction was quenched with 1.2 μL of 50 mM EDTA (EDTA was not added to the positive control wells at this point; see above). Following a 5-min incubation, each well received 10 μL of a 1:1:3 mixture of anti-phosphotyrosine antibody, 10×, PTK green tracer, 10× (vortexed), FP dilution buffer, respectively (all from PanVera, cat. # P2837). The plate was covered, incubated for 30 min at room temperature and the fluorescence polarization was read on the Analyst.
The IC50 values shown in Table 1 are averages of three independent measurements.

[1] = 10 nM c-fms, 1 mM ATP, 5 mM MgCl2, 45 min room temperature, averages of three independent measurements, read-out: c-fms Autophosphorylation IC50

Chain of c-fms (P07333 20-972): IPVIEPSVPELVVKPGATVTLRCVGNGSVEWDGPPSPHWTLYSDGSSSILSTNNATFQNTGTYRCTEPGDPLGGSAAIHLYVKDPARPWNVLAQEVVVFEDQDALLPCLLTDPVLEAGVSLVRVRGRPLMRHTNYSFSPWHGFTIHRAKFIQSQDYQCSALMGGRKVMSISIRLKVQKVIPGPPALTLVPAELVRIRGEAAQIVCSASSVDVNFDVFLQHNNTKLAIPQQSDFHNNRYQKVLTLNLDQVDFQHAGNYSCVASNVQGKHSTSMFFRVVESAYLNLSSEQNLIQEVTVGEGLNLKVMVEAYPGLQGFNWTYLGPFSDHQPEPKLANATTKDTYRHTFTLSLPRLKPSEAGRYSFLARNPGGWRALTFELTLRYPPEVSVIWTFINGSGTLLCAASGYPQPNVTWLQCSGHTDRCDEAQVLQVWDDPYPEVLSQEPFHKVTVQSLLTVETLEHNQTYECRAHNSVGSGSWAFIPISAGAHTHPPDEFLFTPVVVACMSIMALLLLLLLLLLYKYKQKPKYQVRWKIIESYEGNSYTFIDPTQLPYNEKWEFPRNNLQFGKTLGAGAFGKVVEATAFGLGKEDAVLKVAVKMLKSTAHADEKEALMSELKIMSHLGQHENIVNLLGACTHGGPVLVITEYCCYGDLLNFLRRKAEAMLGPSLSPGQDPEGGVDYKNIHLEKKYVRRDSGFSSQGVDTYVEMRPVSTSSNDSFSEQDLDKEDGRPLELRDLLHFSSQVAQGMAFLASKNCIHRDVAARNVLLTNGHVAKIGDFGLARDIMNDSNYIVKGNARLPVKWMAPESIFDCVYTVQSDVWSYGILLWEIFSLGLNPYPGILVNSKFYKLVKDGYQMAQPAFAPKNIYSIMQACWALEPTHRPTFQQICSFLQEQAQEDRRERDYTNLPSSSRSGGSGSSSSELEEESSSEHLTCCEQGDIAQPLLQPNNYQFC

SMILES	IC50 [1]	IC50
CNC(=O)c1cn(-c2ccc3c(c2)CCC3)c2nc(Nc3cccc(N4CCN(C)CC4)c3)ncc2c1=O [Cpd 38, 8-indan-5-yl-2-[3-(4-methyl-piperazin-1-yl)-phenylamino]-5-oxo-5,8-dihydro-pyrido[2,3-d]pyrimidine-6-carboxylic acid methyl amide]	9 nM	–
CNC(=O)c1cn(-c2ccc3c(c2)CCC3)c2nc(Nc3ccc(CCS(=O)(=O)NC(C)C)cc3)ncc2c1=O [Cpd 33, 8-Indan-5-yl-2-[4-(2-isopropylsulfamoyl-ethyl)-phenylamino]-5-oxo-5,8-dihydro-pyrido[2,3-d]pyrimidine-6-carboxylic acid methyl amide]	100 nM	–
CN1CCN(CC(=O)N2CCC(c3ccc(Nc4ncc5c(=O)c(C(N)=O)cn(-c6ccc7c(c6)CCC7)c5n4)cc3)CC2)CC1 [Cpd 72, 8-Indan-5-yl-2-(4-{1-[2-(4-methyl-piperazin-1-yl)-acetyl]-piperidin-4-yl}-phenylamino)-5-oxo-5,8-dihydro-pyrido[2,3-d]pyrimidine-6-carboxylic acid amide]	4100 nM	–
CCNC(=O)c1cn(-c2ccc3c(c2)CCC3)c2nc(Nc3ccc(OCC(O)CN(C)C)cc3)ncc2c1=O (stereo not shown) [Cpd 12, 2-[4-(3-Dimethylamino-2-hydroxy-propoxy)-phenylamino]-8-indan-5-yl-5-oxo-5,8-dihydro-pyrido[2,3-d]pyrimidine-6-carboxylic acid ethylamide]	77 nM	–
CCOC(=O)c1cn(-c2ccc3c(c2)CCC3)c2nc(Nc3ccc(OCC(O)CN(C)C)cc3)ncc2c1=O (stereo not shown) [Cpd 2, 2-[4-(3-Dimethylamino-2-hydroxy-propoxy)-phenylamino]-8-indan-5-yl-5-oxo-5,8-dihydro-pyrido[2,3-d]pyrimidine-6-carboxylic acid ethyl ester]	440 nM	–
CN1CCN(c2ccc(Nc3ncc4c(=O)c(C(=O)O)cn(-c5ccc6c(c5)CCC6)c4n3)cc2)CC1 [Cpd 6, 8-Indan-5-yl-2-[4-(4-methyl-piperazin-1-yl)-phenylamino]-5-oxo-5,8-dihydro-pyrido[2,3-d]pyrimidine-6-carboxylic acid]	1100 nM	–
CN(C)C(=O)c1cccc(Nc2ncc3c(=O)c(C(N)=O)cn(-c4ccc5c(c4)CCC5)c3n2)c1 [Cpd 79, 2-(3-Dimethylcarbamoyl-phenylamino)-8-indan-5-yl-5-oxo-5,8-dihydro-pyrido[2,3-d]pyrimidine-6-carboxylic acid amide]	62 nM	–
CN1CCN(c2ccc(Nc3ncc4c(=O)c(C(N)=O)cn(-c5ccc6c(c5)CCC6)c4n3)c(O)c2)CC1 [Cpd 25, 2-[2-Hydroxy-4-(4-methyl-piperazin-1-yl)-phenylamino]-8-indan-5-yl-5-oxo-5,8-dihydro-pyrido[2,3-d]pyrimidine-6-carboxylic acid amide]	93 nM	–
CCNC(=O)c1cn(C2CCCCC2)c2nc(Nc3cccc(N4CCN(C)CC4)c3)ncc2c1=O [Cpd 65, 8-Cyclohexyl-2-[3-(4-methyl-piperazin-1-yl)-phenylamino]-5-oxo-5,8-dihydro-pyrido[2,3-d]pyrimidine-6-carboxylic acid ethyl amide]	110 nM	–
CNC(=O)c1cn(C2CCCCC2)c2nc(Nc3ccc(CCN4CCOCC4)cc3)ncc2c1=O [Cpd 58, 8-Cyclohexyl-2-[4-(2-morpholin-4-yl-ethyl)-phenylamino]-5-oxo-5,8-dihydro-pyrido[2,3-d]pyrimidine-6-carboxylic acid methyl amide]	120 nM	–
CN1CCN(c2ccc(Nc3ncc4c(=O)c(C(N)=O)cn(-c5ccccc5)c4n3)cc2)CC1 [Cpd 13, 2-[4-(4-Methyl-piperazin-1-yl)-phenylamino]-5-oxo-8-phenyl-5,8-dihydro-pyrido[2,3-d]pyrimidine-6-carboxylic acid amide]	730 nM	–
NC(=O)c1cn(-c2ccc3c(c2)CCC3)c2nc(Nc3ccc(CN4CCOCC4)cc3)ncc2c1=O [Cpd 69, 8-Indan-5-yl-2-(4-morpholin-4-ylmethyl-phenylamino)-5-oxo-5,8-dihydro-pyrido[2,3-d]pyrimidine-6-carboxylic acid amide]	–	18 nM
CN1CCN(c2cccc(Nc3ncc4c(=O)c(C(N)=O)cn(-c5ccc6c(c5)CCC6)c4n3)c2)CC1 [Cpd 37, 8-Indan-5-yl-2-[3-(4-methyl-piperazin-1-yl)-phenylamino]-5-oxo-5,8-dihydro-pyrido[2,3-d]pyrimidine-6-carboxylic acid amide]	8 nM	–
CN1CCN(c2ccc(Nc3ncc4c(=O)c(C(N)=O)cn(C5CCCC5)c4n3)cc2)CC1 [Cpd 19, 8-Cyclopentyl-2-[4-(4-methyl-piperazin-1-yl)-phenylamino]-5-oxo-5,8-dihydro-pyrido[2,3-d]pyrimidine-6-carboxylic acid amide]	56 nM	–
CCOC(=O)c1cn(-c2ccc3c(c2)CCC3)c2nc(Nc3ccc(N(C)C)cc3)ncc2c1=O [Cpd 4, 2-(4-Dimethylamino-phenylamino)-8-indan-5-yl-5-oxo-5,8-dihydro-pyrido[2,3-d]pyrimidine-6-carboxylic acid ethyl ester]	> 10000 nM	–
CCNC(=O)c1cn(C2CC3CCC2C3)c2nc(Nc3ccc(N4CCN(C)CC4)cc3)ncc2c1=O (stereo not shown) [Cpd 83, 8-Bicyclo[2.2.1]hept-2-yl-2-[4-(4-methyl-piperazin-1-yl)-phenylamino]-5-oxo-5,8-dihydro-pyrido[2,3-d]pyrimidine-6-carboxylic acid ethylamide]	300 nM	–
CCNC(=O)c1cn(-c2ccc3c(c2)CCC3)c2nc(Nc3ccc(CCS(=O)(=O)NC(C)C)cc3)ncc2c1=O [Cpd 34, 8-Indan-5-yl-2-[4-(2-isopropylsulfamoyl-ethyl)-phenylamino]-5-oxo-5,8-dihydro-pyrido[2,3-d]pyrimidine-6-carboxylic acid ethyl amide]	> 1000 nM	–
CCNC(=O)c1cn(-c2ccc3c(c2)CCC3)c2nc(Nc3cccc(CN(C)C)c3)ncc2c1=O [Cpd 78, 2-(3-Dimethylaminomethyl-phenylamino)-8-indan-5-yl-5-oxo-5,8-dihydro-pyrido[2,3-d]pyrimidine-6-carboxylic acid ethylamide]	140 nM	–
CNC(=O)c1cn(-c2ccc3c(c2)CCC3)c2nc(Nc3ccc(CCS(=O)(=O)N4CCOCC4)cc3)ncc2c1=O [Cpd 35, 8-Indan-5-yl-2-{4-[2-(morpholine-4-sulfonyl)-ethyl]-phenylamino}-5-oxo-5,8-dihydro-pyrido[2,3-d]pyrimidine-6-carboxylic acid methyl amide]	80 nM	–
CC(C)NS(=O)(=O)CCc1ccc(Nc2ncc3c(=O)c(C(N)=O)cn(C4CCCCC4)c3n2)cc1 [Cpd 66, 8-Cyclohexyl-2-[4-(2-isopropylsulfamoyl-ethyl)-phenylamino]-5-oxo-5,8-dihydro-pyrido[2,3-d]pyrimidine-6-carboxylic acid amide]	120 nM	–
CNC(=O)c1cn(-c2ccc3c(c2)CCC3)c2nc(Nc3ccc(N4CCNCC4)cc3)ncc2c1=O [Cpd 41, 8-indan-5-yl-5-oxo-2-(4-piperazin-1-yl-phenylamino)-5,8-dihydro-pyrido[2,3-d]pyrimidine-6-carboxylic acid methyl amide]	11 nM	–
CCNC(=O)c1cn(-c2ccc3c(c2)CCC3)c2nc(Nc3ccc(CCN4CCN(C)CC4)cc3)ncc2c1=O [Cpd 48, 8-Indan-5-yl-2-{4-[2-(4-methyl-piperazin-1-yl)-ethyl]-phenylamino}-5-oxo-5,8-dihydro-pyrido[2,3-d]pyrimidine-6-carboxylic acid ethyl amide]	32 nM	–
CN(C)c1ccc(Nc2ncc3c(=O)c(C(N)=O)cn(-c4ccc5c(c4)CCC5)c3n2)cc1 [Cpd 15, 2-(4-Dimethylamino-phenylamino)-8-indan-5-yl-5-oxo-5,8-dihydro-pyrido[2,3-d]pyrimidine-6-carboxylic acid amide]	70 nM	–
CCNC(=O)c1cn(-c2ccc3c(c2)CCC3)c2nc(Nc3cccc(N4CCN(C)CC4)c3)ncc2c1=O [Cpd 39, 8-Indan-5-yl-2-[3-(4-methyl-piperazin-1-yl)-phenylamino]-5-oxo-5,8-dihydro-pyrido[2,3-d]pyrimidine-6-carboxylic acid ethyl amide]	13 nM	–
CCNC(=O)c1cn(-c2ccc3c(c2)CCC3)c2nc(Nc3ccc(CCN4CCOCC4)cc3)ncc2c1=O [Cpd 29, 8-Indan-5-yl-2-[4-(2-morpholin-4-yl-ethyl)-phenylamino]-5-oxo-5,8-dihydro-pyrido[2,3-d]pyrimidine-6-carboxylic acid ethyl amide]	33 nM	–
CNC(=O)c1cn(C2CCCCC2)c2nc(Nc3cccc(N4CCN(C)CC4)c3)ncc2c1=O [Cpd 64, 8-Cyclohexyl-2-[3-(4-methyl-piperazin-1-yl)-phenylamino]-5-oxo-5,8-dihydro-pyrido[2,3-d]pyrimidine-6-carboxylic acid methyl amide]	50 nM	–
NC(=O)c1cn(-c2ccc3c(c2)CCC3)c2nc(Nc3ccc(N4CCOCC4)cc3)ncc2c1=O [Cpd 14, 8-indan-5-yl-2-(4-morpholin-4-yl-phenylamino)-5-oxo-5,8-dihydro-pyrido[2,3-d]pyrimidine-6-carboxylic acid amide]	19 nM	–
CN(C)CC(=O)N1CCC(c2cccc(Nc3ncc4c(=O)c(C(N)=O)cn(-c5ccc6c(c5)CCC6)c4n3)c2)CC1 [Cpd 71, 2-{3-[1-(2-Dimethylamino-acetyl)-piperidin-4-yl]-phenylamino}-8-indan-5-yl-5-oxo-5,8-dihydro-pyrido[2,3-d]pyrimidine-6-carboxylic acid amide]	7400 nM	–
